# What was measured:
# SETVI (Foxtail, Green) [1] = assay: Preemergence herbicidal evaluation; format: in vivo, Setaria viridis; details: rated 4-5 weeks after treatment, rating scale 0-9
# Procedure, shortened: (§1)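 Each species is sown separately in potting soil over roughly an inch of soil before any emergence. The soil surface then receives an aqueous acetone spray delivering about 0.0156 to 0.500 kg/ha of compound. After four to five weeks, injury is scored from 0 to 9 relative to a control.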
# CYPSE (Flatsedge) = assay: Preemergence weed control under flooded paddy conditions; format: in vivo, Cyperus serotinus; details: rated 3-4 weeks after treatment
# Procedure, shortened: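 Using flooded silt loam (water 1.5 to 3 cm deep), seeds sown in the top 0.5 cm were exposed preemergence to compound pipetted into the flood at about 0.0313 to 0.500 kg/ha. Effects were scored 0-9 by eye three to four weeks later.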
# [2] = test system: TRZAWR (Wheat, Winter, cv Riband); assay: Preemergence herbicidal evaluation; format: in vivo, Triticum aestivum; details: rated 4-5 weeks after treatment, rating scale 0-9
# Procedure, shortened: as §1
# CYPIR (Rice Flatsedge) = assay: Preemergence weed control under flooded paddy conditions; format: in vivo, Cyperus iria; details: rated 3-4 weeks after treatment
# Procedure, shortened: (§2)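 First, seeds or propagules go into the top 0.5 cm of silt loam; next, water is held 1.5 to 3 cm over the soil; then compound (50/50 acetone/water) is pipetted into it at about 0.0313 to 0.500 kg/ha; finally plants are rated visually 0-9 after three to four weeks.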
# ECHCG (Barnyardgrass) = assay: Preemergence herbicidal evaluation; format: in vivo, Echinochloa crus-galli; details: rated 4-5 weeks after treatment, rating scale 0-9
# Procedure, shortened: as §1
# ZEAMX (Corn, Field) [3] = assay: Preemergence herbicidal evaluation; format: in vivo, Zea mays; details: rated 4-5 weeks after treatment, rating scale 0-9
# Procedure, shortened: as §1
# ORYSAT (Rice, Tebonnet) = assay: Postemergence herbicidal evaluation; format: in vivo, Oryza sativa, (L.) Tebonnet; details: postemergence
# Procedure, shortened: (§3)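 Visual 0–9 rating versus control (stand, vigor, malformation, size, chlorosis, overall appearance), taken four to five weeks post-spray. Two-week-old seedlings received roughly 0.0156–0.500 kg/ha active in acetone/water (50/50) with 0.5% TWEEN 20 via nozzle at 40 psi.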
# [4] = test system: ECHORC (Watergrass (Calif.)); assay: Preemergence weed control under flooded paddy conditions; format: in vivo, Echinochloa oryzoides; details: rated 3-4 weeks after treatment
# Procedure, shortened: as §2
# ZEAMX (Corn, Field) [5] = assay: Postemergence herbicidal evaluation; format: in vivo, Zea mays; details: postemergence
# Procedure, shortened: as §3
# SETVI (Foxtail, Green) [6] = assay: Postemergence herbicidal evaluation; format: in vivo, Setaria viridis; details: postemergence
# Procedure, shortened: as §3
SMILES,"Preemergence herbicidal rating SETVI (SETVI (Foxtail, Green) [1]; rate 0.0313 kg/ha)","Preemergence herbicidal rating SETVI (SETVI (Foxtail, Green) [1]; rate 0.0625 kg/ha)","Preemergence herbicidal rating SETVI (SETVI (Foxtail, Green) [1]; rate 0.1250 kg/ha)","Preemergence herbicidal rating SETVI (SETVI (Foxtail, Green) [1]; rate 0.2500 kg/ha)","herbicidal effect rating, CYPSE (CYPSE (Flatsedge); 0.1250 kg/ha)","herbicidal effect rating, CYPSE (CYPSE (Flatsedge); 0.2500 kg/ha)",Preemergence herbicidal rating TRZAWR ([2]; rate 0.0313 kg/ha),Preemergence herbicidal rating TRZAWR ([2]; rate 0.0625 kg/ha),Preemergence herbicidal rating TRZAWR ([2]; rate 0.1250 kg/ha),Preemergence herbicidal rating TRZAWR ([2]; rate 0.2500 kg/ha),"herbicidal effect rating, CYPIR (CYPIR (Rice Flatsedge); 0.0625 kg/ha)","herbicidal effect rating, CYPIR (CYPIR (Rice Flatsedge); 0.1250 kg/ha)","herbicidal effect rating, CYPIR (CYPIR (Rice Flatsedge); 0.2500 kg/ha)",Preemergence herbicidal rating ECHCG (ECHCG (Barnyardgrass); rate 0.0313 kg/ha),Preemergence herbicidal rating ECHCG (ECHCG (Barnyardgrass); rate 0.0625 kg/ha),Preemergence herbicidal rating ECHCG (ECHCG (Barnyardgrass); rate 0.1250 kg/ha),Preemergence herbicidal rating ECHCG (ECHCG (Barnyardgrass); rate 0.2500 kg/ha),"Preemergence herbicidal rating ZEAMX (ZEAMX (Corn, Field) [3]; rate 0.0313 kg/ha)","Preemergence herbicidal rating ZEAMX (ZEAMX (Corn, Field) [3]; rate 0.0625 kg/ha)","Preemergence herbicidal rating ZEAMX (ZEAMX (Corn, Field) [3]; rate 0.1250 kg/ha)",other results
"Cn1c(C(F)(F)F)cc(=O)n(-c2cc(N=C3SCC(=O)N3Cc3ccc(Br)cc3)c(Cl)cc2F)c1=O [Compound 148, 3-{5-{[3-(p-Bromobenzyl)-4-oxo-2-thiazolidinyl-idene]amino}-4-chloro-2-fluorophenyl}-1-methyl-6-(trifluoromethyl)-2,4(1H,3H)-pyrimidinedione]",1.0,0.0,0.0,5.0,0.0,5.0,0.0,0.0,0.0,0.0,4.0,6.0,7.0,0.0,0.0,0.0,0.0,0.0,0.0,0.0,"herbicidal effect rating, CYPSE (CYPSE (Flatsedge); 0.0313 kg/ha): 0.0; herbicidal effect rating, CYPIR (CYPIR (Rice Flatsedge); 0.0313 kg/ha): 4.0; Preemergence herbicidal rating ZEAMX (ZEAMX (Corn, Field) [3]; rate 0.2500 kg/ha): 1.0; herbicidal rating ORYSAT (ORYSAT (Rice, Tebonnet); rate 0.0156 kg/ha): 2.0; herbicidal rating ORYSAT (ORYSAT (Rice, Tebonnet); rate 0.0313 kg/ha): 3.0; herbicidal rating ORYSAT (ORYSAT (Rice, Tebonnet); rate 0.0625 kg/ha): 3.0; herbicidal effect rating, ECHORC ([4]; 0.0313 kg/ha): 6.0; herbicidal effect rating, ECHORC ([4]; 0.0625 kg/ha): 7.0; herbicidal effect rating, ECHORC ([4]; 0.1250 kg/ha): 9.0; herbicidal effect rating, ECHORC ([4]; 0.2500 kg/ha): 9.0; herbicidal rating ZEAMX (ZEAMX (Corn, Field) [5]; rate 0.0156 kg/ha): 4.0; herbicidal rating ZEAMX (ZEAMX (Corn, Field) [5]; rate 0.0313 kg/ha): 4.0; herbicidal rating ZEAMX (ZEAMX (Corn, Field) [5]; rate 0.0625 kg/ha): 5.0; herbicidal rating SETVI (SETVI (Foxtail, Green) [6]; rate 0.0156 kg/ha): 2.0; herbicidal rating SETVI (SETVI (Foxtail, Green) [6]; rate 0.0313 kg/ha): 2.0; herbicidal rating SETVI (SETVI (Foxtail, Green) [6]; rate 0.0625 kg/ha): 4.0"
"Cn1c(C(F)(F)F)cc(=O)n(-c2cc(N=C3SCC(=O)N3C3CC3)c(Cl)cc2F)c1=O [Compound 152, 3-{4-Chloro-5-[(3-cyclopropyl-4-oxo-2-thiazolidinylidene)amino]-2-fluorophenyl}-1-methyl-6-(trifluoromethyl)-2,4(1H,3H)-pyrimidinedione]",0.0,1.0,1.0,9.0,0.0,0.0,0.0,1.0,1.0,1.0,0.0,0.0,0.0,0.0,0.0,1.0,1.0,0.0,1.0,1.0,"herbicidal effect rating, CYPSE (CYPSE (Flatsedge); 0.0625 kg/ha): 0.0; Preemergence herbicidal rating ZEAMX (ZEAMX (Corn, Field) [3]; rate 0.2500 kg/ha): 2.0; herbicidal rating ORYSAT (ORYSAT (Rice, Tebonnet); rate 0.0156 kg/ha): 1.5; herbicidal rating ORYSAT (ORYSAT (Rice, Tebonnet); rate 0.0313 kg/ha): 2.0; herbicidal rating ORYSAT (ORYSAT (Rice, Tebonnet); rate 0.0625 kg/ha): 3.0; herbicidal effect rating, ECHORC ([4]; 0.0625 kg/ha): 0.0; herbicidal effect rating, ECHORC ([4]; 0.1250 kg/ha): 0.0; herbicidal effect rating, ECHORC ([4]; 0.2500 kg/ha): 0.0; herbicidal rating ZEAMX (ZEAMX (Corn, Field) [5]; rate 0.0156 kg/ha): 4.0; herbicidal rating ZEAMX (ZEAMX (Corn, Field) [5]; rate 0.0313 kg/ha): 5.0; herbicidal rating ZEAMX (ZEAMX (Corn, Field) [5]; rate 0.0625 kg/ha): 6.5; herbicidal rating SETVI (SETVI (Foxtail, Green) [6]; rate 0.0156 kg/ha): 0.0; herbicidal rating SETVI (SETVI (Foxtail, Green) [6]; rate 0.0313 kg/ha): 3.0; herbicidal rating SETVI (SETVI (Foxtail, Green) [6]; rate 0.0625 kg/ha): 3.0"
